Patent US9834541B2, “2-aminopyridine compounds” (Merck Patent GmbH, priority 2012, dated 2017)

Key:
[1] = CLint (intrinsic clearance) assay, liver microsomal incubation; assay type: in vitro ADME, human; details: liver microsomes, pH 7.4; human hepatic microsomes, 0.5 mg/mL protein, class symbols
Description: Also shown is the human hepatic microsomal intrinsic clearance (CLint), whereby the following classification is used:
2. CLint (Intrinsic Clearance) Assay
A Tecan Genesis workstation (RWS ASY 150/8) was used to perform the microsomal incubations. Analysis was carried out using a Waters ACQUITY UPLC system coupled to an ABSciex API3000 mass spectrometer. Data analysis was performed using Assay Explorer (Symyx).
Column: Acquity UPLC BEH C18, 2.1×50 mm, 1.7 um (Waters)
Mobile phases: • A=0.1% formic acid in water • B=acetonitrile
Column temperature: 50° C.
0.1 M potassium phosphate buffer pH 7.4 containing 1 mM MgCl2
15 mM NADPH in phosphate buffer
5.0 mg protein/mL liver microsomes in phosphate buffer
Each experiment consists of 12 test and 2 reference compounds. The reference compounds are incubated as a cocktail.
Dilution of test compounds was done in 2 steps from a 10 mM DMSO stock solution. First 4 μL stock solution was added to 196 μL of 20% DMSO in potassium phosphate buffer pH 7.4. In a second step 10 μL of the first dilution were added to 1890 μL potassium phosphate buffer and 100 μL internal standard solution to a final concentration of […].
100 μL of the final compound dilution were aliquoted into a 96 deep well plate. 12.5 μL liver microsomes were added to each well (0.5 mg/mL final protein concentration) and the samples preincubated for 5 min at 37° C. and 800 rpm agitation.
After the preincubation, 250 μL cold acetonitrile were added to the 0 min samples to prevent a reaction. Following this, 12.5 μL NADPH solution were added to all wells to start the incubation, with the exception of the 0 min and 30 min controls without cofactor, where the NADPH was substituted for phosphate buffer.
The incubations were stopped after 5, 10, 20 and 30 min by adding 250 μL cold acetonitrile to the individual wells.
The quenched samples were then centrifuged at 4000 g for 1 h at 4° C. 100 μL of the supernatant were transferred into 96 well plates for analysis.
The metabolic stability of each compound was determined by measurement of the change in LC-MS/MS peak area over time. Assay Explorer software was used to automatically calculate the slope k of the decline. The intrinsic clearance (CLint) of each compound was then calculated according to the formula: CLint(μL/min/mg protein)=k1000/protein concentration.

Wnt pathway = experiment: Cellular assay for Wnt pathway activity, LS174T-shl-fLuc clone 5 (LS174T-L5) luciferase reporter assay; assay type: cell-based; details: Homo sapiens; LS174T TCF luciferase reporter cells, 24 hours incubation
From the text: 1. Cellular Assay for Wnt Pathway Activity LS174T-shl-fLuc Clone 5 (LS174T-L5) Reporter Assay Principle:
This assay is based on an in-vitro luciferase activity readout. The human colon cancer cell line, LS174T was transduced with a lentivirus encoding a short half-life luciferase (with a destabilised PEST sequence construct; construct F1756): 16×TCF/LEF transcription sites—short half life firefly luciferase on a basal pTA promoter—puromycin resistance gene on an EF-1-α promoter). This construct was made using the lentiviral base vector: pCDF1-MCS2-EF1-Puro from System Biosciences (cat. # CD110B-1). The luciferase has a T1/2 of about 60 minutes.
Stable luciferase-expressing clones were selected, using 1 μg/mL puromycin selection and the clones were bulked up.
Compounds that inhibit the Wnt pathway are predicted to inhibit the induction of luciferase transcription by TCF; this will result in reduced luciferase protein production and luciferase signal readout.
Compounds were tested for their Wnt pathway inhibitory activities using the described firefly luciferase reporter cell based assay. An LS174T luciferase reporter cell line was used which contained a T-Cell Factor (TCF) dependent gene promoter firefly luciferase construct.
Compounds, in concentrations from 30 μM to 1 nM, were incubated for 24 hours on the cells. Luciferase activities were determined using the Steady Glo Luciferase Assay System (Promega) and the TOPCOUNT microplate reader (Perkin Elmer). For analysis, the obtained data were normalized against the untreated vehicle control and fitted for determination of the IC50 values using the Excel Fit application of the Excel Software (Microsoft).

Structure (SMILES): Cn1cc(-c2ccc(-c3cnc(N)c(Cl)c3N3CC[C@H](C#N)[C@@H](O)C3)cc2)cn1 (racemic) [Compound 56, rac (3R,4R)-2′-Amino-3′-chloro-3-hydroxy-5′-[4-(1-methyl-1H-pyrazol-4-yl)-phenyl]-3,4,5,6-tetrahydro-2H-[1,4′] bipyridinyl-4-carbonitrile]
- microsomal CLint at 0.8 μM [1]: 10 to 50 µL/min/mg
- IC50 (Wnt pathway): 531 nM

Structure (SMILES): CN1c2ccc(-c3cnc(N)c(Cl)c3N3CC[C@H](C#N)[C@@H](O)C3)cc2CS1(=O)=O (racemic) [Compound 57, Racemic trans-2′-amino-3′-chloro-3-hydroxy-5′-(1-methyl-2,2-dioxo-2,3-dihydro-1H-2l6-benzo[c]isothiazol-5-yl)-3,4,5,6-tetrahydro-2H-[1,4′]bipyridinyl-4-carbonitrile]
- microsomal CLint at 0.8 μM [1]: 10 to 50 µL/min/mg
- IC50 (Wnt pathway): 28.6 nM

Structure (SMILES): Nc1ncc(-c2ccccc2)c(N2CCC3(CCNC3=O)CC2)c1Cl [Compound 1, 8-(2-Amino-3-chloro-5-phenyl-pyridin-4-yl)-2,8-diaza-spiro[4.5]decan-1-one]
- microsomal CLint at 0.8 μM [1]: 10 to 50 µL/min/mg
- IC50 (Wnt pathway): 670 nM

Structure (SMILES): Cn1cc(-c2ccc(-c3cnc(N)c(Cl)c3N3CCC4(CC3)NC(=O)NC4=O)cc2)cn1 [Compound 2, 8-{2-Amino-3-chloro-5-[4-(1-methyl-1H-pyrazol-4-yl)-phenyl]-pyridin-4-yl}-1,3,8-triaza-spiro[4.5] decane-2,4-dione]
- microsomal CLint at 0.8 μM [1]: < 10 µL/min/mg
- IC50 (Wnt pathway): 31 nM

Structure (SMILES): Nc1ncc(-c2ccc3c(N)n[nH]c3c2)c(N2CCC3(CCNC3=O)CC2)c1Cl [Compound 3, 8-[2-Amino-5-(3-amino-1H-indazol-6-yl)-3-chloro-pyridin-4-yl]-2,8-diaza-spiro[4.5] decan-1-one]
- microsomal CLint at 0.8 μM [1]: < 10 µL/min/mg
- IC50 (Wnt pathway): 120 nM

Structure (SMILES): CN1c2ccc(-c3cnc(N)c(Cl)c3N3CCC4(CC3)CNC(=O)O4)cc2CS1(=O)=O [Compound 4, 8-[2-Amino-3-chloro-5-(1-methyl-2,2-dioxo-2,3-dihydro-1H-2I6-benzo[c]isothiazol-5-yl)-pyridin-4-yl]-1-oxa-3,8-diaza-spiro[4.5] decan-2-one]
- microsomal CLint at 0.8 μM [1]: < 10 µL/min/mg
- IC50 (Wnt pathway): 38 nM

Structure (SMILES): Nc1ncc(-c2ccc3c(N)n[nH]c3c2)c(N2CCC3(CC2)NC(=O)NC3=O)c1Cl [Compound 5, 8-[2-Amino-5-(3-amino-1H-indazol-6-yl)-3-chloro-pyridin-4-yl]-1,3,8-triaza-spiro[4.5] decane-2,4-dione]
- microsomal CLint at 0.8 μM [1]: < 10 µL/min/mg
- IC50 (Wnt pathway): 1500 nM

Structure (SMILES): Nc1ncc(-c2ccc(-c3cnn(CCO)c3)cc2)c(N2CCC3(CC2)NC(=O)NC3=O)c1Cl [Compound 6, 8-(2-Amino-3-chloro-5-{4-[1-(2-hydroxy-ethyl)-1H-pyrazol-4-yl]-phenyl}-pyridin-4-yl)-1,3,8-triaza-spiro[4.5] decane-2,4-dione]
- microsomal CLint at 0.8 μM [1]: 10 to 50 µL/min/mg
- IC50 (Wnt pathway): 390 nM

Structure (SMILES): Nc1ncc(-c2ccc3c(c2)NC(=O)C3)c(N2CCC3(CCNC3=O)CC2)c1Cl [Compound 7, 6-(6-Amino-5-chloro-4-(1-oxo-2,8-diazaspiro[4.5]decan-8-yl)pyridin-3-yl)indolin-2-one]
- microsomal CLint at 0.8 μM [1]: 10 to 50 µL/min/mg
- IC50 (Wnt pathway): 63 nM

Structure (SMILES): Cn1ncc2cc(-c3cnc(N)c(Cl)c3N3CCC4(CC3)NC(=O)NC4=O)ccc21 [Compound 8, 8-[2-Amino-3-chloro-5-(1-methyl-1H-indazol-5-yl)-pyridin-4-yl]-1,3,8-triaza-spiro[4.5] decane-2,4-dione]
- microsomal CLint at 0.8 μM [1]: < 10 µL/min/mg
- IC50 (Wnt pathway): 29 nM

Structure (SMILES): Nc1ncc(-c2ccc3oc(=O)[nH]c3c2)c(N2CCC3(CC2)CNC(=O)O3)c1Cl [Compound 9, 8-[2-Amino-3-chloro-5-(2-oxo-2,3-dihydro-benzooxazol-5-yl)-pyridin-4-yl]-1-oxa-3,8-diaza-spiro[4.5] decan-2-one]
- microsomal CLint at 0.8 μM [1]: 10 to 50 µL/min/mg
- IC50 (Wnt pathway): 98 nM

Structure (SMILES): Cn1cc(-c2ccc(-c3cnc(N)c(Cl)c3N3CCC4(CC3)CNC(=O)O4)cc2)cn1 [Compound 10, 8-{2-Amino-3-chloro-5-[4-(1-methyl-1H-pyrazol-4-yl)-phenyl]-pyridin-4-yl}-1-oxa-3,8-diaza-spiro[4.5] decan-2-one]
- microsomal CLint at 0.8 μM [1]: 10 to 50 µL/min/mg
- IC50 (Wnt pathway): 36 nM

Structure (SMILES): Cn1cc(-c2ccc(-c3cnc(N)c(Cl)c3N3CCC4(CC3)C(=O)Nc3ccccc34)cc2)cn1 [Compound 11, 1′-(2-Amino-3-chloro-5-(4-(1-methyl-1H-pyrazol-4-yl)phenyl)pyridin-4-yl)spiro[indoline-3,4′-piperidin]-2-one]
- microsomal CLint at 0.8 μM [1]: 10 to 50 µL/min/mg
- IC50 (Wnt pathway): 3 nM

Structure (SMILES): Nc1ncc(-c2ccc3c(N)n[nH]c3c2)c(N2CCC3(CC2)CC(=O)NC3=O)c1Cl [Compound 12, 8-[2-Amino-5-(3-amino-1H-indazol-6-yl)-3-chloro-pyridin-4-yl]-2,8-diaza-spiro[4.5] decane-1,3-dione]
- microsomal CLint at 0.8 μM [1]: 10 to 50 µL/min/mg
- IC50 (Wnt pathway): 31 nM

Structure (SMILES): Nc1ncc(-c2ccc3c(c2)CCC(=O)N3)c(N2CCC3(CC2)CC(=O)NC3=O)c1Cl [Compound 13, 8-[2-Amino-3-chloro-5-(2-oxo-1,2,3,4-tetrahydro-quinolin-6-yl)-pyridin-4-yl]-2,8-diaza-spiro[4.5] decane-1,3-dione]
- microsomal CLint at 0.8 μM [1]: < 10 µL/min/mg
- IC50 (Wnt pathway): 14 nM

Structure (SMILES): CN1C(=O)CCc2cc(-c3cnc(N)c(Cl)c3N3CCC4(CCNC4=O)CC3)ccc21 [Compound 14, 6-[6-Amino-5-chloro-4-(1-oxo-2,8-diaza-spiro[4.5]dec-8-yl)-pyridin-3-yl]-1-methyl-3,4-dihydro-1H-quinolin-2-one]
- microsomal CLint at 0.8 μM [1]: 10 to 50 µL/min/mg
- IC50 (Wnt pathway): 40 nM

Structure (SMILES): Nc1ncc(-c2ccc3[nH]ncc3c2)c(N2CCC3(CCNC3=O)CC2)c1Cl [Compound 35, 8-[2-Amino-3-chloro-5-(1H-indazol-5-yl)-pyridin-4-yl]-2,8-diaza-spiro[4.5] decan-1-one]
- IC50 (Wnt pathway): 85 nM

Structure (SMILES): CN1C(=O)Cc2cc(-c3cnc(N)c(Cl)c3N3CCC4(CC3)CNC(=O)O4)ccc21 [Compound 36, 8-[2-Amino-3-chloro-5-(1-methyl-2-oxo-2,3-dihydro-1H-indol-5-yl)-pyridin-4-yl]-1-oxa-3,8-diaza-spiro[4.5] decan-2-one]
- IC50 (Wnt pathway): > 300 nM

Structure (SMILES): Nc1ncc(-c2ccc3c(N)n[nH]c3c2)c(N2CCC3(CC2)CNC(=O)O3)c1Cl [Compound 37, 8-[2-Amino-5-(3-amino-1H-indazol-6-yl)-3-chloro-pyridin-4-yl]-1-oxa-3,8-diaza-spiro[4.5] decan-2-one]
- IC50 (Wnt pathway): 2300 nM

Structure (SMILES): Cn1cc(-c2ccc(-c3cnc(N)c(Cl)c3N3CCC4(CC3)CC(=O)NC4=O)cc2)cn1 [Compound 38, 8-(2-Amino-3-chloro-5-(4-(1-methyl-1H-pyrazol-4-yl)phenyl)pyridin-4-yl)-2,8-diazaspiro[4.5]decane-1,3-dione]
- IC50 (Wnt pathway): 2 nM

Structure (SMILES): Nc1ncc(-c2ccc(-c3cnn(CCO)c3)cc2)c(N2CCC3(CC2)NCCNC3=O)c1Cl [Compound 45, 9-(2-Amino-3-chloro-5-{4-[1-(2-hydroxy-ethyl)-1H-pyrazol-4-yl]-phenyl}-pyridin-4-yl)-1,4,9-triaza-spiro[5.5] undecan-5-one]
- IC50 (Wnt pathway): 560 nM

Structure (SMILES): Cn1cc(-c2ccc(-c3cnc(N)c(C(F)(F)F)c3N3CCC(C(N)=O)CC3)cc2)cn1 [Compound 48, 2′-Amino-5′-[4-(1-methyl-1H-pyrazol-4-yl)-phenyl]-3′-trifluoro-methyl-3,4,5,6-tetrahydro-2H-[1,4′] bipyridinyl-4-carboxylic acid amide]
- IC50 (Wnt pathway): 160 nM
